# Test results reported in article PMC6796659, “Topoisomerase IB poisons induce histone H2A phosphorylation as a response to DNA damage in Leishmania infantum” (International Journal for Parasitology: Drugs and Drug …, 2019).
# Read-outs that look alike come from different tables or passages of the source.
# What was measured:
# [1] = system: iRFP L. infantum promastigotes; experiment: Antileishmanial activity on free-living iRFP L. infantum promastigotes (infrared fluorescence viability); assay type: cell-based; conditions: Leishmania infantum, 72 h, 26 °C
# Procedure: Histone phosphorylation assays were performed in promastigotes of L. infantum BCN 150 strain, whereas the antiparasitic activity of the compounds was assessed on the transgenic strain that constitutively expresses the irfp gene encoding the infrared iRFP protein (iRFP L. infantum strain) ([Calvo-Álvarez et al., 2015]), which is derived from L. infantum BCN 150. Both strains were grown at 26 °C in M-199 medium (Gibco) supplemented with 25 mM HEPES pH 7.2, 0.1 mM adenine, 0.0005% (w/v) hemin, 2 μg/mL biopterin, 0.0001% (w/v) biotin, 10% (v/v) heat-inactivated fetal bovine serum (FBS) and an antibiotic cocktail comprising 50 U/mL penicillin and 50 μg/mL streptomycin.
# (§1) The antileishmanial activity of the compounds was tested both in promastigotes and in amastigotes infecting mouse splenocytes. For this purpose, 384-well optical bottom black plates (Thermo Scientific) were seeded either with free-living iRFP L. infantum promastigotes or with splenic explants infected with iRFP L. infantum amastigotes, which were incubated at 26 °C or 37 °C, respectively. The viability of both iRFP L. infantum stages was measured by recording the fluorescence emitted by viable cells at 708 nm in an Odyssey (Li-Cor) infrared imaging system after a 72-h period of incubation with different concentrations of the compounds. Dose-response curves were obtained by plotting the infrared fluorescence emission of viable parasites vs. different concentrations of testing compounds and were fitted by nonlinear analysis using the Sigma-Plot 10.0 statistical package. The reduction of infrared emission with respect to the negative control was used to determine the 50% effective concentration to kill the parasites (EC50). Both controls and treated groups were tested with DMSO (drug vehicle) concentrations below 0.1%. All compounds and controls were assayed in triplicate.
# [2] = system: iRFP L. infantum amastigotes infecting mouse splenocytes; experiment: Antileishmanial activity on iRFP L. infantum amastigotes in ex vivo murine splenic explants; assay type: cell-based, Leishmania infantum; conditions: for EC50: Leishmania infantum, Splenocyte, 72 h, read-out: EC50 (μM) L. infantum amastigotes; for SI (Selectivity Index): CC50 (splenocytes)/EC50 (amastigotes)
# Procedure: Five-week BALB/c female mice infected intraperitoneally with 1.5 × 10^9 metacyclic iRFP L. infantum promastigotes were sacrificed to eviscerate their spleens, which were processed to obtain a suspension of primary splenocytes. Briefly, freshly dissected spleens were washed with cold phosphate-buffered saline (PBS), cut in small pieces and incubated for 20 min with 5 mL of 2 mg/mL collagenase D (Sigma) prepared in buffer (10 mM HEPES, pH 7.4, 150 mM NaCl, 5 mM KCl, 1 mM MgCl2 and 1.8 mM CaCl2). Then, the cell suspension was passed through a 100 μm cell strainer, harvested by centrifugation (500×g for 7 min at 4 °C), washed twice with PBS, and resuspended in RPMI medium (Gibco) supplemented with 10 mM HEPES, 1 mM sodium pyruvate, 1xRPMI 1640 vitamin mix, 10% (v/v) FBS, 50 U/mL penicillin and 50 μg/mL streptomycin. The cell suspension was cultured in 384-well optical bottom black plates (Thermo Scientific) at 37 °C under 5% CO2 atmosphere.
# as §1
# [3] = Cytotoxicity on uninfected mouse splenocytes (Alamar Blue); assay type: cell-based; conditions: BALB/c, freshly isolated uninfected mouse splenocytes, non-infected mouse splenocytes, read-out: CC50 (μM) Murine Splenocytes
# Procedure: Finally, the cytotoxicity of the compounds was assessed on freshly-isolated mouse splenocytes, which were obtained from uninfected BALB/c mice according to the protocol previously described. Viability of uninfected splenocytes was used to determine the cytotoxic concentration 50 (CC50) by means of the Alamar Blue staining method, according to manufacturer's recommendations (Invitrogen). Selectivity index (SI) for each compound was calculated as the ratio between the CC50 value obtained for splenic cells and the EC50 value for amastigotes.
# human Top IB (hTopIB) = target: T1, human Top IB (hTopIB) (Homo sapiens, UniProt P11387); experiment: Relaxation of supercoiled pSK DNA by recombinant hTopIB; assay type: biochemical
# T1 construct: made in house
# T1 sequence (P11387 1-765): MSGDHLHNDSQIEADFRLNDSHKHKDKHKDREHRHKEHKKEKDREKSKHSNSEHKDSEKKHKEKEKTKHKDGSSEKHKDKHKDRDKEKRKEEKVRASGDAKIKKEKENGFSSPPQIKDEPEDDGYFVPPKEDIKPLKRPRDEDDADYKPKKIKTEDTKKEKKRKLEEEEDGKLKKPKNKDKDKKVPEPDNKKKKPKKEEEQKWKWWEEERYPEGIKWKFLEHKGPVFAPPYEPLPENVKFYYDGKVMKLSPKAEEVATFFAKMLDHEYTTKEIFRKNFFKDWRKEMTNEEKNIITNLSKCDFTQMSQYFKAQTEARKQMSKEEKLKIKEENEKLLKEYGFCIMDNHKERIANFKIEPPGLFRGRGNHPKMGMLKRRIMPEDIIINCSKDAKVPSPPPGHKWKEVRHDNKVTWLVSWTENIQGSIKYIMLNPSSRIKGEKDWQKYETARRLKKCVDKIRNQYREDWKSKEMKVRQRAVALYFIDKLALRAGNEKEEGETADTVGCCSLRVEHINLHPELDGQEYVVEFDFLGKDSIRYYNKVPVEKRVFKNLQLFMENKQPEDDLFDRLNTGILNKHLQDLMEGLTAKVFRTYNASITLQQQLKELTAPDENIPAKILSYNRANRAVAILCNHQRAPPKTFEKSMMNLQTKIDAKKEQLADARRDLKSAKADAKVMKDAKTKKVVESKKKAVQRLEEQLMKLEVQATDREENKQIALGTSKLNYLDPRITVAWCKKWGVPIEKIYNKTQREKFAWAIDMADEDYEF
# Procedure: (§2) Expression and purification of LTopIB and hTopIB were carried out according to a previously standardized protocol ([Villa et al., 2003]). The effect of indenoisoquinolines (compounds 1 to 20) on recombinant LTopIB and hTopIB was determined by measuring the relaxation of negatively supercoiled pBluescript-SK DNA plasmid (pSK). Briefly, in a total volume of 20 μL, 100 U of recombinant TopIB were incubated with 0.5 μg of pSK DNA in 10 mM Tris-HCl buffer (pH 7.5), 5 mM MgCl2, 5 mM dithiothreitol (DTT), 0.1 mM EDTA, […] bovine serum albumin, and 150 mM KCl. Different concentrations of indenoisoquinolines were also added. Following a 4-min incubation period at 25 °C, reactions were stopped with 1% (w/v) SDS, and incubated for one extra hour at 37 °C in the presence of 1 mg/mL proteinase K. Subsequently, samples were extracted with 1 vol phenol-chloroform mixture and were loaded on a 1% agarose gel containing 0.1 μg/mL ethidium bromide. The gel was run for 16 h at 4 V/cm, and the images were acquired using a G-Box system (Syngene, United Kingdom).
# [4] = system: Leishmania topoisomerase IB (LTopIB); experiment: Relaxation of supercoiled pSK DNA by recombinant LTopIB; assay type: biochemical; set-up: key: +++: inhibition at 1 μM; ++: inhibition at 10 μM; +: inhibition at 100 μM; 0: no inhibition
# Procedure: as §2
# [5] = splenic-infecting iRFP L. infantum amastigotes, 37 °C
Structure (SMILES),EC50 [1] [µM],"EC50 [2, 5] [µM]",CC50 [3] [µM],hTopIB inhibition (human Top IB (hTopIB); Table 3),LTopIB inhibition ([4]; Table 3),SI (Selectivity Index) [2],hTopIB inhibition (human Top IB (hTopIB); Table 1),LTopIB inhibition ([4]; Table 1),hTopIB inhibition (human Top IB (hTopIB); Table 2),LTopIB inhibition ([4]; Table 2),EC50 [2] [µM]
COc1ccc2c(c1)C(=O)c1c-2n(CCCN2CCOCC2)c(=O)c2cc([N+](=O)[O-])ccc12 [Compound 16],> 10,1.86 ± 0.29,0.59 ± 0.08,+++ (inhibition at 1 μM),0,–,–,–,–,–,–
COC(=O)c1ccc2c(c1)C(=O)c1c-2n(CCCN)c(=O)c2cc([N+](=O)[O-])ccc12 [Compound 4],1.1 ± 0.07,0.14 ± 0.08,0.59 ± 0.02,–,–,4.2,+++ (inhibition at 1 μM),++ (inhibition at 10 μM),–,–,–
NCCCCCn1c2c(c3ccccc3c1=O)C(=O)c1ccccc1-2 [Compound 10],2.4 ± 1.03,2.29 ± 1.05,1.35 ± 0.19,–,–,–,+++ (inhibition at 1 μM),+++ (inhibition at 1 μM),–,–,–
O=C1c2cccnc2-c2c1c1ccccc1c(=O)n2CCCn1ccnc1 [Compound 13],2.89 ± 0.14,0.59 ± 0.6,2.4 ± 0.35,–,–,4.1,–,–,++ (inhibition at 10 μM),+ (inhibition at 100 μM),–
O=C1c2ccccc2-c2c1c1ccc([N+](=O)[O-])cc1c(=O)n2CCCN1CCOCC1 [Compound 15],> 10,0.6 ± 0.42,18 ± 5.3,+++ (inhibition at 1 μM),0,30,–,–,–,–,–
"C[C@@H]1[C@H](O)[C@@H](C)/C=C/C=C/C=C/C=C/C=C/C=C/C=C/[C@H](O[C@@H]2O[C@H](C)[C@@H](O)[C@H](N)[C@@H]2O)C[C@@H]2O[C@](O)(C[C@@H](O)C[C@@H](O)[C@H](O)CC[C@@H](O)C[C@@H](O)CC(=O)O[C@H]1C)C[C@H](O)[C@H]2C(=O)O [AMB, amphotericin B, reference compound]",0.8 ± 0.1,0.3,> 20,–,–,>62,–,–,–,–,–
NCCCCn1c2c(c3ccccc3c1=O)C(=O)c1ccccc1-2 [Compound 9],0.43 ± 0.08,–,2.11 ± 0.22,–,–,–,+++ (inhibition at 1 μM),+++ (inhibition at 1 μM),–,–,0.73 ± 0.01
O=C1c2ccccc2-c2c1c1ccc([N+](=O)[O-])cc1c(=O)n2CCCn1ccnc1 [Compound 11],0.45 ± 0.5,0.06 ± 0.02,0.71 ± 0.01,–,–,11,–,–,+++ (inhibition at 1 μM),+++ (inhibition at 1 μM),–
NCCCn1c2c(c3ccc([N+](=O)[O-])cc3c1=O)C(=O)c1cc3c(cc1-2)OCO3 [Compound 8],0.06 ± 0.01,0.02 ± 0.05,0.05 ± 0.01,–,–,2.8,+++ (inhibition at 1 μM),+++ (inhibition at 1 μM),–,–,–
CCOc1ccc2c(c1)C(=O)c1c-2n(CCCN)c(=O)c2cc([N+](=O)[O-])ccc12 [Compound 5],0.54 ± 0.05,0.08,0.35 ± 0.03,–,–,4.4,+++ (inhibition at 1 μM),++ (inhibition at 10 μM),–,–,–
NCCCn1c2c(c3ccc([N+](=O)[O-])cc3c1=O)C(=O)c1cc(Br)ccc1-2 [Compound 6],0.52 ± 0.03,0.13 ± 0.03,0.81 ± 0.09,–,–,6.2,+++ (inhibition at 1 μM),+++ (inhibition at 1 μM),–,–,–
COc1cc2c3c(n(CCCn4ccnc4)c(=O)c2cc1OC)-c1cc2c(cc1C3=O)OCO2 [Compound 14],1.85 ± 0.18,0.01,0.03,–,–,3.0,–,–,+++ (inhibition at 1 μM),0,–
NCCn1c2c(c3ccccc3c1=O)C(=O)c1ccccc1-2 [Compound 1],0.94 ± 0.03,0.04 ± 0.09,1.1 ± 0.06,–,–,24.4,++ (inhibition at 10 μM),+++ (inhibition at 1 μM),–,–,–
